Assay results reported in patent US11512073B2, “Benzimidazole derivatives, pharmaceutical composition comprising the same, and use thereof” (Chongqing University of Arts and Sciences, priority 2020, dated 2022).

Key:
[1] = test system: MDA-MB-231 xenograft; assay: Animal xenograft model; format: in vivo, NOD/SCID mice
Method: For the in vivo assay, six-week-old female NOD/SCID mice weighing 16-20 g were used, which were maintained in the SPF (Specific Pathogen Free) laboratory animal environment and under a normal daily light/dark cycle. During the experiment, 1×10^7 MDA-MB-231 cells were suspended in 100 μL serum-free DMEM and injected subcutaneously into the left groin region of the mice. Tumor volume was measured regularly. On day 22 post-tumor implanted, the NOD/SCID mice were randomly divided into three groups (n=6) on the basis of their tumor volume to insure a similar starting tumor volume of all the groups. The appropriate dose of compound 7a (5 mg/kg, 15 mg/kg) dissolved in 100 μL solvent (10% ethanol, 40% PEG400 and 50% corn oil) was administered every 3 days by intraperitoneal injection when the xenograft tumor volume attained around 100 mm^3, while the control group received equal volume solvent every 3 days in a similar method. The tumor size was measured once every 3 days with a caliper, and tumor size was calculated using the standard formula (L×W^2)/2, where L and W represents the length and width, respectively. The mice were sacrificed on Day 46 (Day 25 after treatment), and the xenograft tumors were obtained and weighed. Then the tumor tissues were collected and divided into two portions, one was fixed in 4% PFA and embedded by paraffin for Hematoxylin & eosin (HE) and immunohistochemical staining, anther was performed immunoblotting.
For immunohistochemistry, the embedded samples were sectioned and incubated with anti-Ki-67 overnight at 4° C. Then, the sections were incubated with HRP labeled secondary antibody and were observed under the Olympus BX73 microscope. Five fields were randomly selected to evaluate the positivity.

[2] = test system: MDA-MB-231 cells; assay: Annexin V-FITC/PI apoptosis assay by flow cytometry; format: cell-based, Human; conditions: 48 h, dose-dependent; from 3.64% in control; p<0.01
Method: (§1) Cells in a logarithmic growth phase were harvested and seeded into six-well plates with 30% cell density and cultured overnight in an incubator. Once adhered to the bottom of the plate, cells were treated with different doses of compound 7a for 48 h, and then employed in flow cytometry analysis. For cell cycle assay, the collected cells were washed with phosphate-buffered saline (PBS) and fixed with 70% cold ethanol in 4° C. for 24 h. After washing three times of PBS, the fixed cells were incubated in 200 μL PBS solution containing 1 μL propidium iodide (BD, CA, USA) and 1 μL RNase (Sigma Aldrich, USA) at 37° C. for 0.5 h. Finally, cells were analyzed using BD Accuri™ C6 flow cytometry (BD Biosciences, USA). For the cell apoptosis assay, after the cells were harvested and washed twice with PBS, the percentage of apoptotic cells were measured using an Annexin V-FITC/PI Apoptosis Assay Kit (BD Biosciences, USA). The BD Accuri™ C6 flow cytometry was used to analyze the apoptosis process. The FlowJo software was used to analyze the cell cycle arrest and apoptotic rate.

[3] = test system: MDA-MB-468 cells; assay: as above; format: cell-based, Human; conditions: 48 h, dose-dependent; from 5.02% in control; p<0.01
Method: as §1

[4] = test system: MDA-MB-231 and MDA-MB-468 cells; assay: Colony forming assay; format: cell-based, Human; conditions: 0, 5, 10, 20 μmol/L
Method: MAD-MB-231 and MDA-MB-468 cells were seeded in a six-well plate at 1000 cells/well and treated with various concentrations of compound 7a (0, 5, 10, 20 μmol/L) for 48 h. After discarding the supernatant, the cells were cultured with fresh medium for 15 days until formed the visible colonies. Finally, colonies were fixed with 4% paraformaldehyde (PFA) and stained with crystal violet for 30 min to enable enumeration of colonies.

[5] = test system: MDA-MB-231 and MDA-MB-468 cells; assay: Immunoblotting of cell cycle, apoptosis, autophagy and DDR proteins; format: cell-based, Human
Method: MDA-MB-231 and MDA-MB-468 cells were treated with the compound 7a (0, 5, 10 and 20 μmol/L) for 48 h, total protein was extracted using RIPA buffer (Beyotime, Shanghai, China) supplemented with protease/phosphatase inhibitor cocktail (Roche, Mannheim, Germany) at 4° C. for 30 min. The protein concentration was quantified by the BCA protein assay kit (Beyotime). Protein samples (50 μg) were separated by SDS-PAGE with appropriate gel concentration and subsequent electrophoretically transferred onto PVDF membranes (Millipore Corporation, MA, USA). After blocking with 5% BSA for 2 h at ambient temperature, the membranes sections were incubated gently with the indicated primary antibodies overnight at 4° C. and washed with TBST for 5×5 minutes. Subsequently, the membranes were then incubated with corresponding IRDye 800CW goat anti-mouse IgG (H+L) or IRDye 680LT donkey anti-rabbit IgG (H+L) secondary antibody for 1 h. The objective protein signal was obtained using an odyssey two-color infrared fluorescence imaging system (Li-cor, NE, USA). For immunoprecipitation, harvested cells were lysed in ice-cold NP-40 buffer including 50 mM Tris-HCl (pH 7.4), 150 mM NaCl, 0.5% NP-40, 1 mM Na3VO4, 50 mM NaF and protease inhibitor cocktail (Roche). Lysate was centrifuged at 12,000×g for 20 min at 4° C. The supernatant was incubated with anti-HA at 4° C. overnight, followed by incubation with Protein-A/G beads overnight (Beyotime). The proteins were washed six times with ice-cold NP-40 buffer and eluted with SDS loading buffer containing mercaptoethanol by boiling for 10 min.

O=C(NC1CCCCC1)c1[nH]cnc1-c1nc2ccccc2[nH]1 [Compound 7a]
tumor growth (tumor volume and weight) ([1]; 5 and 15 mg/Kg, intraperitoneal, after 24 days, dose dependent): considerably suppressed human TNBC tumor growth | size of harvested tumors ([1]; 5 and 15 mg/kg, intraperitoneal, every 3 days): dramatically smaller than tumors from vehicle-treated control mice | LC3B-II, p62, γH2AX and PARP in tumor tissue ([1]; immunoblotting of tumors, 5 and 15 mg/kg): concentration-dependent upregulation of LC3B-II, p62, γH2AX and PARP | cell count (H&E) and Ki67 in tumor tissue ([1]; immunohistochemistry of tumors): significant decrease in cell count and Ki67 | proportion of late-phase apoptosis [2]: 34.2% | proportion of late-phase apoptosis [3]: 36.4% | colony formation [4]: smaller and decreased colony numbers | p62 level ([5]; TNBC cells): resulted in a p62 accumulation | expression of BRCA2, RAD51 and RNF8 ([5]; immunoblotting): significantly reduced | levels of BRCA2 and RAD51 ([5]; immunoblotting): dramatically decreased levels of both proteins in a dose-dependent manner | phosphorylation of ATM, NBS1 and SMC1 ([5]; immunoblotting): activated | p62 in nuclear and cytoplasmic proteins ([5]; immunoblotting of fractions): drastic p62 increase in the nucleus and cytoplasm in a dose-dependent manner | P21 and phosphorylation levels of CHK1 (Serine 345) and CHK2 (Threonine 68) ([5]; immunoblotting, 48 h): increased P21 and the phosphorylation levels of CHK1 (Serine 345) and CHK2 (Threonine 68) in a dose-dependent manner | anti-apoptotic protein Bcl-2 ([5]; immunoblotting, 48 h): decrease of anti-apoptotic protein Bcl-2 | cytochrome c, cleaved caspase-3, cleaved caspase-9 and cleaved PARP ([5]; immunoblotting, 48 h): increased in a dose-dependent manner | levels of Cyclin A, Cyclin B, CDK1 and CDK2 ([5]; immunoblotting, 48 h): decreased the levels of Cyclin A, Cyclin B, CDK1 and CDK2 | pro-apoptotic proteins Bak, Bim and Bax ([5]; immunoblotting, 48 h): elevated in a dose-dependent manner | γH2AX level ([5]; immunoblotting, dose-dependent): significantly increased | conversion to LC3B-II ([5]; immunofluorescence and western blotting, dose- and time-dependent): significantly induced
